In brackets after ≈: the same amount, converted by molar mass.
Columns and labels:
HeLa [1] = experiment: Growth inhibition of human HeLa cells assessed as reduction in cell viability measured after 3 days by CCK-8 assay; type: functional; conditions: 72 h, time 3 day
SK-OV-3 = experiment: Growth inhibition of human SK-OV-3 cells assessed as reduction in cell viability measured after 3 days by CCK-8 assay; type: functional; conditions: SK-OV-3, 72 h, time 3 day
K562 [2] = experiment: Growth inhibition of human K562 cells assessed as reduction in cell viability measured after 3 days by CCK-8 assay; type: functional; conditions: K562, 72 h, time 3 day
OVCAR-8 = experiment: Growth inhibition of human OVCAR-8 cells assessed as reduction in cell viability measured after 3 days by CCK-8 assay; type: functional; conditions: OVCAR-8, 72 h, time 3 day
[3] = tested on: KATO III stomach cancer cell line; experiment: Growth inhibition of human KATO III stomach cancer cell line assessed as reduction in cell viability measured after 3 days by CCK-8 assay; type: functional; conditions: 72 h, time 3 day
T-24 = experiment: Growth inhibition of human T24 cells assessed as reduction in cell viability measured after 3 days by CCK-8 assay; type: functional; conditions: T-24, 72 h, time 3 day
PANC-1 = experiment: Growth inhibition of human PANC-1 cells assessed as reduction in cell viability measured after 3 days by CCK-8 assay; type: functional; conditions: PANC-1, 72 h, time 3 day
AGS = experiment: Growth inhibition of human AGS cells assessed as reduction in cell viability measured after 3 days by CCK-8 assay; type: functional; conditions: 72 h, time 3 day
BXPC-3 = experiment: Growth inhibition of human BXPC-3 cells assessed as reduction in cell viability measured after 3 days by CCK-8 assay; type: functional; conditions: BXPC-3, 72 h, time 3 day
WiDr = experiment: Growth inhibition of human WiDr cells assessed as reduction in cell viability measured after 3 days by CCK-8 assay; type: functional; conditions: 72 h, time 3 day
SNU1 = experiment: Growth inhibition of human SNU1 cells assessed as reduction in cell viability measured after 3 days by CCK-8 assay; type: functional; conditions: SNU1, 72 h, time 3 day
HepG2 [4] = experiment: Growth inhibition of human HepG2 cells assessed as reduction in cell viability measured after 3 days by CCK-8 assay; type: functional; conditions: HepG2, 72 h, time 3 day
SN12C = experiment: Growth inhibition of human SN12C cells assessed as reduction in cell viability measured after 3 days by CCK-8 assay; type: functional; conditions: 72 h, time 3 day
HeLa [5] = experiment: Antiproliferative activity against human HeLa cells assessed as inhibition of cell growth incubated for 72 hrs by MTT assay; type: functional, cell-based
K562 [6] = experiment: Cytotoxicity against human K562 cells assessed as reduction in cell viability incubated for 72 hrs by MTT assay; type: functional, cell-based; conditions: K562, 72 h
MCF7 = experiment: Antiproliferative activity against human MCF7 cells assessed as reduction in cell proliferation by CCK-8 assay; type: functional, cell-based
DLD-1 = experiment: Anticancer activity against human DLD-1 cells assessed as reduction in cell viability; type: functional, cell-based
HeLa [7] = experiment: Antiproliferative activity against human HeLa cells assessed as reduction in cell viability; type: functional, cell-based
Hep 3B2 = experiment: Antiproliferative activity against human Hep3B cells assessed as inhibition of cell viability after 72 hrs by CCK-8 assay; type: functional, cell-based
HepG2 [8] = experiment: Antiproliferative activity against human HepG2 cells assessed as reduction in cell viability; type: functional, cell-based
OVCAR-3 = experiment: Antiproliferative activity against human OVCAR-3 cells assessed as cell viability measured after 72 hrs incubation by MTT assay; type: functional, cell-based; conditions: OVCAR-3, 72 h
A2780 = experiment: Antiproliferative activity against human A2780 cells assessed as reduction in cell viability incubated for 48 hrs by MTT assay; type: functional, cell-based; conditions: A2780, 48 h
A549 [9] = experiment: Cytotoxicity against human A549 cells assessed as cell growth inhibition incubated for 72 hrs by MTT colorimetric assay; type: functional, cell-based; conditions: A549, 72 h
MDA-MB-231 [10] = experiment: Cytotoxicity against human MDA-MB-231 cells assessed as cell growth inhibition incubated for 72 hrs by MTT colorimetric assay; type: functional, cell-based; conditions: MDA-MB-231, 72 h
MDA-MB-231 [11] = experiment: Cytotoxicity against human MDA-MB-231 cells assessed as cell growth inhibition by SRB assay; type: functional, cell-based
HeLa [12] = experiment: Cytotoxicity against human HeLa cells assessed as cell growth inhibition incubated for 72 hrs by MTT colorimetric assay; type: functional, cell-based
K562 [13] = experiment: Cytotoxicity against human K562 cells assessed as cell growth inhibition incubated for 72 hrs by MTT colorimetric assay; type: functional, cell-based; conditions: K562, 72 h
[14] = target: Cyclin-dependent kinase inhibitor 1 (p21) (human) (UniProt P38936); experiment: Upregulation of p21 gene expression in human HeLa cells assessed fold increase by RT-PCR analysis
MDA-MB-231 [15] = experiment: Anticancer activity against human MDA-MB-231 cells assessed as reduction in cell viability measured after 72 hrs by MTT assay; type: functional, cell-based; conditions: MDA-MB-231, 72 h
HepG2 [16] = experiment: Anticancer activity against human HepG2 cells assessed as reduction in cell viability; type: functional, cell-based
HeLa [17] = experiment: Antitumor activity against human HeLa cells assessed as inhibition of cell growth by MTT assay; type: functional, cell-based
[18] = Cytotoxicity against green monkey COS-7 cells; type: toxicity, cell-based; conditions: green monkey (Chlorocebus aethiops)
Caco-2 = experiment: Cytotoxicity against human Caco-2 cells assessed as reduction in cell viability incubated for 72 hrs by MTT assay; type: functional, cell-based; conditions: Caco-2, 72 h
4T1 = experiment: Cytotoxicity against mouse 4T1 cells assessed as inhibition of cell proliferation incubated for 72 hrs by MTT assay; type: functional, cell-based; conditions: 4T1, 72 h
DU-145 = experiment: Anticancer activity against human DU-145 cells assessed as cell growth inhibition; type: functional, cell-based
[19] = Anticancer activity against human SK-MEL-128 cells assessed as cell growth inhibition; type: functional, cell-based
A549 [20] = experiment: Antiproliferative activity against human A549 cells assessed as reduction in cell viability by MTS assay; type: functional, cell-based
BT-20 = experiment: Anticancer activity against human BT-20 cells assessed as cell growth inhibition; type: functional, cell-based

For `CCN(CC)c1ccc2cc(-c3nc4ccccc4n3C)c(=O)oc2c1`, the GI50 (HeLa [1]) was < 410 nM, the GI50 (SK-OV-3) was < 410 nM and the GI50 (K562 [2]) was < 410 nM. For the same compound, the GI50 (OVCAR-8) was < 410 nM, the GI50 [3] was < 410 nM and the GI50 (T-24) was < 410 nM. The GI50 (PANC-1) was < 410 nM, the GI50 (AGS) was < 410 nM and the GI50 (BXPC-3) was < 410 nM. The GI50 (WiDr) was < 410 nM, the GI50 (SNU1) was < 410 nM and the GI50 (HepG2 [4]) was < 410 nM. For the same compound, the GI50 (SN12C) was < 410 nM.
`Cc1nn(-c2ccccc2)c(=O)n1-n1c(-c2cc3ccccc3oc2=O)cs/c1=N\c1ccc(Cl)cc1` gave an IC50 (HeLa [5]) of 210 nM.
With `COc1cccc(-c2cn(Cc3cc(=O)oc4cc(O)c(O)cc34)nn2)c1` the IC50 (K562 [6]) was 17900 nM.
`Cc1c(Cc2ccccc2)c(=O)oc2cc(OS(N)(=O)=O)ccc12` showed an IC50 (MCF7) of 32 nM.
Compound `COc1ccc(/C(C)=N/Nc2ncc(C(=O)c3cc4ccccc4oc3=O)s2)cc1` has an EC50 (DLD-1) of 5790 nM.
For `CCOC(=O)c1sc(N/N=C(\C)c2cc3cc(Br)ccc3oc2=O)nc1C`, the IC50 (HeLa [7]) was 9 nM.
Compound `CCN(CC)c1ccc2cc(C(=O)N3CCN(CCC[C@H]4O[C@@H]5O[C@@]6(C)CC[C@H]7[C@H](C)CC[C@@H]([C@H]4C)[C@@]57OO6)CC3)c(=O)oc2c1` has an IC50 (Hep 3B2) of 3760 nM, an IC50 (HepG2 [8]) of 3050 nM and an IC50 (OVCAR-3) of 4600 nM. For the same compound, the IC50 (A2780) was 5820 nM.
`COc1ccc(-n2nc(C)n(-n3c(-c4cc5ccccc5oc4=O)cs/c3=N\c3ccc(Cl)cc3)c2=O)cc1` gave an IC50 (A549 [9]) of 170 nM, an IC50 (MDA-MB-231 [10]) of 160 nM and an IC50 (MDA-MB-231 [11]) of 160 nM. The IC50 (HeLa [12]) was 250 nM and the IC50 (K562 [13]) was 310 nM.
For `CCOC(=O)c1sc(N/N=C(\C)c2cc3ccccc3oc2=O)nc1C`, the “fold change (FC)” value [14] was 2.3.
Work on `CCCCCCc1c(C)c2ccc(OS(N)(=O)=O)cc2oc1=O` yielded an IC50 (MCF7) of 8 nM.
For `COC(=O)c1cc2cc(-c3nc4cc(C)ccn4c3NC(C)(C)C)cc(C(C)C)c2oc1=O`, the IC50 (MDA-MB-231 [15]) was 14100 nM.
In the case of `C/C(=N\Nc1ncc(C(=O)c2cc3ccccc3oc2=O)s1)c1ccc(C)cc1`, the EC50 (HepG2 [16]) is reported as 3700 nM.
`O=c1oc2ccccc2cc1-c1csc(N/N=C/c2c3ccccc3c(Cl)c3ccccc23)n1` gave an IC50 (HeLa [17]) of 1290 nM and an IC50 [18] of 1660 nM.
`COc1ccccc1-c1cn(Cc2cc(=O)oc3cc(O)c(O)cc23)nn1` showed an IC50 (Caco-2) of 9700 nM.
With `O=C(Cc1cc(=O)oc2cc(O)ccc12)NCCCCCCCCNc1c2c(nc3ccccc13)CCCC2` the IC50 (4T1) was 7000 nM.
For `Nn1c(Cc2ccc(Cl)c(Cl)c2)nn(CC(=O)NNC(=O)c2cc3cc(Cl)ccc3oc2=O)c1=O`, the IC50 (DU-145) was 3.7 µg/mL (≈ 6.88 µM) and the IC50 [19] was 12.3 µg/mL (≈ 22.9 µM).
With `Nn1c(Cc2ccc(Cl)cc2)nn(CC(=O)NNC(=O)c2cc3cc(Cl)cc(Cl)c3oc2=O)c1=O` the IC50 (A549 [20]) was 7.5 µg/mL (≈ 13.9 µM).
With `Nn1c(Cc2ccccc2Br)nn(CC(=O)NNC(=O)c2cc3cc(Cl)cc(Cl)c3oc2=O)c1=O` the IC50 (BT-20) was 6.4 µg/mL (≈ 11 µM).
